Here are results for 1 compound from PMC9814544 (Communications Chemistry, 2020).

Several values for one entry are separate records, joined by “and”; a condition that tells them apart may be missing. Equal values may be shown once.

As usually defined, the Kd is the free concentration of one partner at which half of the binding sites on the other are occupied at equilibrium, for simple one-to-one binding.

The target in test [1] is T1, LOX129 (LOX-1 129-273) (Homo sapiens, UniProt P78380).
T1 construct: 6His-tag with thrombin cleavage site (N, cleaved yes); made in house; host or cells: E. coli SHuffle cells (New England BioLabs), pET28a
The test can be described thus: Isothermal titration calorimetry. The test is classed as binding. Here is the method:
For additional biophysical profiling of the specific SPR binders, isothermal titration calorimetry (ITC) was used. Due to limited solubility of the compounds, an inverse setup was used by titrating LOX129 into compound solution. The mean Kd value of three independent measurements is 7 µM (Supplementary Table 4).
Isothermal titration calorimetry experiments were conducted on a MicroCal iTC200 instrument (Malvern) using LOX-1 that had been passed through a PD-10 desalting column (GE Healthcare) equilibrated with 20 mM Tris pH 7.3 and 150 mM NaCl. Complete saturation of 35 µM, respectively 40 µM LOX inhibitor was typically achieved by injecting 18× 2 µl aliquots of 300 µM LOX-1 at a temperature of 25 °C. As a control 300 µM LOX-1 was injected in buffer (n = 1, Supplementary Fig. 19).
The thermodynamic binding parameters were extracted by non-linear regression analysis of the binding isotherms (MicroCal PEAQ-ITC Analysis Software). A single-site binding model was applied yielding the binding enthalpy (ΔH), stoichiometry (n), entropy (ΔS) and association constant (Ka). The binding isotherm of protein in buffer control was not subtracted during data evaluation.
(In general: ITC needs no label: the signal is the heat of the interaction.)

In test [2] the target is T1, LOX129 (LOX-1 129-273). The test can be described thus: Surface plasmon resonance, immobilized LOX129. The test is classed as binding. The procedure:
To enable surface plasmon resonance spectroscopy (SPR), LOX129 was immobilized on a SPR chip by amine coupling and compounds were analyzed for binding. Based on the individual sensorgrams the compounds were classified as non-binders, over-stoichiometric binders or dose-dependent binders. In total four different structural classes could be confirmed as dose-dependent and stoichiometric binders. […] The mean binding ratio is 0.78 (Supplementary Table 3). Assuming a high percentage of active, binding competent protein on the chip surface, this ratio represents less than one BI-0115 molecule per LOX-1 monomer.
Binding studies were performed using a Biacore T200 instrument (GE Healthcare) at 25 °C in 20 mM HEPES pH 6.8, 150 mM NaCl, 0.05% Tween 20, and 1% DMSO at a flow rate of 30 μL/min. The interaction analyses were performed in the multi-cycle kinetic mode using 120 s association time and 600 s dissociation time at the following LOX-1 inhibitor concentrations 0.391, 0.78, 1.56, 3.125, 6.25, 12.5 and 25 µM. Data were analyzed using the Biacore T200 Evaluation Software 2.0. Due to a transient binding, the KD was determined from a plot of steady state response levels against analyte concentration (affinity plot). The mean KD value was determined from four individual experiments (Supplementary Table 3). The binding ratio is the average number of compound molecules bound per LOX-1 protein on the surface.

Consider `CCCN1C(=O)c2ccc(Cl)cc2Nc2ncccc21` [BI-0115], for which, at LOX129 (LOX-1 129-273) [1] (in words), the “ITC thermodynamic driving force” value was “strong entropic contribution”. In addition, the Kd on LOX129 (LOX-1 129-273) [1] (mean of n = 3, 300 µM LOX129 dimer titrated into compound, 25 °C, read-out: ITC Kd) is 7 µM and 6.99 µM; on LOX129 (LOX-1 129-273) [2] (mean of n = 4, steady-state fit, 25 °C, read-out: SPR Kd), 4.32 µM and 4.3 µM; on LOX129 (LOX-1 129-273) [2] (measurements 1-4, Supplementary Table 3, read-out: SPR KD, individual measurements) it was 3.8 µM and 4.6 µM and 4.12 µM and 4.76 µM. Further, at LOX129 (LOX-1 129-273) [1] (stoichiometry, mean of n = 3), the “ITC N (molar ratio protein:inhibitor)” value was 1.8 and 1.77 ±0.34. The SPR binding kinetics entry on LOX129 (LOX-1 129-273) [2] (in words) was “fast binding kinetics”. At LOX129 (LOX-1 129-273) [2] (mean of n = 4, compound molecules bound per LOX-1 protein on the surface), the SPR binding ratio worked out at 0.78. Also, on LOX129 (LOX-1 129-273) [2] (measurements 1-4, Supplementary Table 3), the “SPR binding ratio, individual measurements” value is 0.79 and 0.84 and 0.73 and 0.77.
